Among the data in patent publication US9783536B2, “Nitrogen-containing heterocyclic compound or salt thereof” (FUJIFILM Corporation, priority 2013, dated 2017) are IC50 values, retold here.

One experiment relates to CHO-K1 cells. The experiment in a line: CHO cell toxicity test. In kind it is cell-based, Chinese hamster. The settings on record: Cricetulus griseus; CHO-K1 cells, 24 hours culture with compound, CellTiter-Glo; read-out: IC50 value (concentration at which the number of viable cells was suppressed to 50% or less). The protocol: In a CHO cell toxicity test, the following was used.
Cell: CHO-K1 cells (derived from Chinese hamster ovary) Test medium: F-12 MEDIUM+FCS (manufactured by Biowest) having a final concentration of 2%
Detection reagent: CELLTITER-GLO™ LUMINESCENT CELL VIABILITY ASSAY (trade name, manufactured by PROMEGA Corporation)
The CHO-K1 cells were seeded in a 96-well microplate for culture at 5,000 cells/well, and cultured in a CO2 incubator (37° C.) for 24 hours. An evaluation compound (final concentration: from 25.00 μmol/L to 0.20 μmol/L, common ratio: […]) was added thereto, followed by culturing for 24 hours, and the number of viable cells was calculated from emission intensity by CELLTITER-GLO™ (trade name, manufactured by PROMEGA Corporation). In the measurement of the emission intensity, VARIOSKAN FLASH (manufactured by Thermo Fisher Scientific Inc.) was used.
Inhibition ratio (%)=100−(A/B)×100
A: Emission intensity in the presence of a test compound
B: Emission intensity in the absence of a test compound
On the technique in general: In ATP-based viability assays light output follows the ATP content of the culture.

The target in experiment [1] is T1, GST fusion human ERK2 protein (Homo sapiens, UniProt P28482).
T1 construct: purchased Carna Biosciences, Inc; host or cells: E. coli expression system
The experiment is described as follows: ERK2 enzyme assay (2). Type of experiment: biochemical. The settings on record: ERK2 enzyme assay (2); read-out: ERK2 enzyme inhibitory activity (2). The essentials: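 IC50 values come from mobility-shift measurement of phosphorylated versus unphosphorylated 5-FAM peptide substrate after EDTA quench. Beforehand, compound and 1.25 nmol/L E. coli-expressed GST–human ERK2 stood 15 min at room temperature (pH 7.5), then 1 mmol/L ATP and 4.25 μmol/L substrate (final) were added for 120 min at 25 °C.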

A further experiment deals with T2, human PI3Kα protein (Homo sapiens, UniProt P42336).
T2 construct: purchased Carna Biosciences, Inc; host or cells: baculovirus expression system
The experiment in a line: PI3Kα enzyme assay (ADP-Glo). In kind it is biochemical. The settings on record: read-out: PI3Kα enzyme inhibitory activity. The essentials:
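Biotinylated human PI3Kα (baculovirus-expressed, 4.5 nmol/L) pre-incubated 15 min with compound in Tris-HCl pH 7.5, MgCl2, BSA; reaction 60 min at 25° C with 50 μmol/L PIP2 and 100 μmol/L ATP final. ADP quantified by ADP-Glo luminescence; IC50 calculated.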

T2 sequence (P42336 whole entry): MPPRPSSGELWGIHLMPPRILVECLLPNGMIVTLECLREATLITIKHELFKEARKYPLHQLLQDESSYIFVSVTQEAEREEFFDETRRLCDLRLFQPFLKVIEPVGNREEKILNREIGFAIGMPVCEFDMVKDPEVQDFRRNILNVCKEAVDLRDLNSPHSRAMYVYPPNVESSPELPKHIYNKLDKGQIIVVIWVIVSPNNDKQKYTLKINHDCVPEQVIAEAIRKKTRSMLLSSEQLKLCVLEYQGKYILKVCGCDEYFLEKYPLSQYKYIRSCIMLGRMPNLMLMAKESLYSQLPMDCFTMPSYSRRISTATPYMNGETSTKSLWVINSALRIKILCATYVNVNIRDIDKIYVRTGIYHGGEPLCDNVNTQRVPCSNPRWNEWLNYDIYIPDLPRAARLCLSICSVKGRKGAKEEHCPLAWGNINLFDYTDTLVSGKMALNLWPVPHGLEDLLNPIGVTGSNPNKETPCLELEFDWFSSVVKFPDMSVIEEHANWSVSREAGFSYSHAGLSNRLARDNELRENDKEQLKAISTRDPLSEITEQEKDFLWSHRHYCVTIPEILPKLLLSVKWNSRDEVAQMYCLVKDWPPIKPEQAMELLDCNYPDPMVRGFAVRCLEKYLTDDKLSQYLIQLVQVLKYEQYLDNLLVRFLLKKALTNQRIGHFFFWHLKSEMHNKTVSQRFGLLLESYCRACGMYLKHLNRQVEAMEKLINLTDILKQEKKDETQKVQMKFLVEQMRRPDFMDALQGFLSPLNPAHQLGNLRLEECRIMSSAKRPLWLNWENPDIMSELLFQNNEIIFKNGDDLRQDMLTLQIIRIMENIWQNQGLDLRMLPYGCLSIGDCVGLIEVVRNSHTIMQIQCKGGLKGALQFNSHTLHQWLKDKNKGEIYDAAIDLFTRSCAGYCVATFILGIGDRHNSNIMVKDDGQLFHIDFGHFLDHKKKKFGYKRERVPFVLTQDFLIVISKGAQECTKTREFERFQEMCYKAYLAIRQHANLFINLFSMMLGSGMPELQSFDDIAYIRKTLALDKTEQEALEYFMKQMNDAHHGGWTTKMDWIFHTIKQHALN
T2 sequence (P27986 whole entry partner): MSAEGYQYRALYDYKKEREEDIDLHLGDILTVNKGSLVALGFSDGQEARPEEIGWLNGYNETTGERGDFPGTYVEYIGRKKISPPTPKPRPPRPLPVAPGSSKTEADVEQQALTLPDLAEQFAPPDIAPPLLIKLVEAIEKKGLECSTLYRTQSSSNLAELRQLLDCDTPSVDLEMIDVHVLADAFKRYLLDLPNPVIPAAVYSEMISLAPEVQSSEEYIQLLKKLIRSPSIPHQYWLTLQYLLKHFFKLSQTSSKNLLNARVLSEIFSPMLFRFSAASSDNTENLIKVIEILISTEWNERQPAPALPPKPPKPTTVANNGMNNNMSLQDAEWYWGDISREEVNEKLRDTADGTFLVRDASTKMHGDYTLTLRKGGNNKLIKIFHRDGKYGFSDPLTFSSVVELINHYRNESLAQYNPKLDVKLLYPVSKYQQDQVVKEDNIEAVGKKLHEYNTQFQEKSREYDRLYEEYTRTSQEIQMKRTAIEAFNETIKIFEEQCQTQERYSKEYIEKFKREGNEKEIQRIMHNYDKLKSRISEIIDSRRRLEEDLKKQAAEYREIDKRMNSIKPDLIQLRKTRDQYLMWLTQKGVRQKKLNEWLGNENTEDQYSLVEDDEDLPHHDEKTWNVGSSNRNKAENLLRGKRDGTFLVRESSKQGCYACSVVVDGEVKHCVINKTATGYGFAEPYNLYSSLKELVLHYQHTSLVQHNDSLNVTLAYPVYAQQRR
T1 sequence (P28482 whole entry, the tested form may be a part): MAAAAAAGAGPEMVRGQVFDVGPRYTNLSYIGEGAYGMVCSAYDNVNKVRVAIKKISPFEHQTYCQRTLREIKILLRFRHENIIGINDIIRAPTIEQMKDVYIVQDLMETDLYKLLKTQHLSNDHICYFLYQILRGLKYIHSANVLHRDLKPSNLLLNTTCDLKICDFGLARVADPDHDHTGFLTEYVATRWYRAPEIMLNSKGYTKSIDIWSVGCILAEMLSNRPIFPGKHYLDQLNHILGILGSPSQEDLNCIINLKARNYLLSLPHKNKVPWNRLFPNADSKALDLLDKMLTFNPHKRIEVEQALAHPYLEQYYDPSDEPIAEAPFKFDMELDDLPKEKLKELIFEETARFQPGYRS

For the compound `CC(C)c1cnnc(Nc2ccc3ncc(-c4cn(C)nc4C(F)F)cc3n2)c1` [Example 0635], the IC50 in the experiment with CHO-K1 cells is at least 25 µM; in experiment [1], below 1 µM; on human PI3Kα protein it was below 1 µM.

With `CC(C)c1cnnc(Nc2ccc3ncc(-c4cnn(CCCN5CC6CC(C5)O6)c4)cc3n2)c1` [Example 0637, 7-(1-(3-(6-Oxa-3-azabicyclo[3.1.1]heptan-3-yl)propyl)-1H-pyrazol-4-yl)-N-(5-isopropylpyridazin-3-yl)-1,5-naphthyridine-2-amine], the IC50 was at least 25 µM with CHO-K1 cells, below 1 µM in experiment [1] and below 1 µM at human PI3Kα protein.

`CC(C)c1cnnc(Nc2ccc3ncc(-c4cnn(CCCN5CCO[C@@H](C)C5)c4)cc3n2)c1` [Example 0644]: the IC50 was at least 25 µM in the experiment with CHO-K1 cells, below 1 µM in experiment [1] and below 1 µM at human PI3Kα protein.

`CC(C)c1cnnc(Nc2ccc3ncc(-c4cnn(CCCN5CCO[C@H](C)C5)c4)cc3n2)c1` [Example 0645]: the IC50 was at least 25 µM in the experiment with CHO-K1 cells, below 1 µM in experiment [1] and below 1 µM on human PI3Kα protein.

Take `CC(C)c1cnnc(Nc2ccc3ncc(-c4cnn(CCCN5CCOC[C@H]5C)c4)cc3n2)c1` [Example 0649]: the IC50 in the experiment with CHO-K1 cells is at least 25 µM; in experiment [1], below 1 µM; at human PI3Kα protein, below 1 µM.

As for `CC(C)c1cnnc(Nc2ccc3ncc(-c4cnn(CCCN5CCOC[C@@H]5C)c4)cc3n2)c1` [Example 0650], the figures for the IC50 (in the experiment on CHO-K1 cells; in experiment [1]; at human PI3Kα protein) were at least 25 µM, below 1 µM and below 1 µM, respectively.

`CC(C)c1cnnc(Nc2ccc3ncc(-c4cnn(CCCN5C6CCC5COC6)c4)cc3n2)c1` [Example 0651]: the IC50 is at least 25 µM with CHO-K1 cells, below 1 µM in experiment [1] and below 1 µM at human PI3Kα protein.

On to `CC(C)c1cnnc(Nc2ccc3ncc(-c4cnn(CCCN5CC6CCC(C5)O6)c4)cc3n2)c1` [Example 0653, 7-(1-(3-(8-Oxa-3-azabicyclo[3.2.1]octan-3-yl)propyl)-1H-pyrazol-4-yl)-N-(5-isopropylpyridazin-3-yl)-1,5-naphthyridine-2-amine], for which the IC50 in the experiment with CHO-K1 cells was at least 25 µM; in experiment [1] it was below 1 µM; at human PI3Kα protein it was below 1 µM.

Take `CC(C)c1cnnc(Nc2ccc3ncc(-c4cnn(CCCN5CCOCC5(C)C)c4)cc3n2)c1` [Example 0657]: the IC50 is at least 25 µM in the experiment with CHO-K1 cells, below 1 µM in experiment [1] and below 1 µM on human PI3Kα protein.

With `COCCN(C)CCCn1cc(-c2cnc3ccc(Nc4cc(C(C)C)cnn4)nc3c2)cn1` [Example 0659], the results for the IC50 (in the experiment with CHO-K1 cells; in experiment [1]; at human PI3Kα protein) were at least 25 µM, below 1 µM and below 1 µM, respectively.

Consider `CC(C)c1cnnc(Nc2ccc3ncc(-c4cnn(CCCN5CCCOCC5)c4)cc3n2)c1` [Example 0665], for which the figures for the IC50 (in the experiment on CHO-K1 cells; in experiment [1]; on human PI3Kα protein) were at least 25 µM, below 1 µM and below 1 µM, respectively.

`CC(C)c1cnnc(Nc2ccc3ncc(-c4cnn(CCCN5CCOC(CO)C5)c4)cc3n2)c1` (stereo not drawn) [Example 0678]: the results for the IC50 (in the experiment on CHO-K1 cells; in experiment [1]; on human PI3Kα protein) were at least 25 µM, below 1 µM and below 1 µM, respectively.

`COCC1CN(CCCn2cc(-c3cnc4ccc(Nc5cc(C(C)C)cnn5)nc4c3)cn2)CCO1` (stereo not drawn) [Example 0679]: the IC50 with CHO-K1 cells was at least 25 µM; in experiment [1] it was below 1 µM; at human PI3Kα protein, below 1 µM.

Regarding `CC(=O)NC1CN(CCCn2cc(-c3cnc4ccc(Nc5cc(C(C)C)cnn5)nc4c3)cn2)C1` [Example 0682, N-(1-(3-(4-(6-((5-isopropylpyridazin-3-yl)amino)-1,5-naphthyridin-3-yl)-1H-pyrazol-1-yl)propyl)azetidin-3-yl)acetamide], the results for the IC50 (in the experiment on CHO-K1 cells; in experiment [1]; at human PI3Kα protein) were at least 25 µM, below 1 µM and below 1 µM, respectively.

Regarding `CC(C)c1cnnc(Nc2ccc3ncc(-c4cnn(CCCN5CCOCC5CO)c4)cc3n2)c1` (stereo not drawn) [Example 0685], the values for the IC50 (in the experiment with CHO-K1 cells; in experiment [1]; at human PI3Kα protein) were at least 25 µM, below 1 µM and below 1 µM, respectively.

`CC(C)c1cnnc(Nc2ccc3ncc(-c4cnn(CCCN5CC(C#N)C5)c4)cc3n2)c1` [Example 0686]: the results for the IC50 (with CHO-K1 cells; in experiment [1]; at human PI3Kα protein) were at least 25 µM, below 1 µM and below 1 µM, respectively.

Turning to `CNC(=O)C1CN(CCCn2cc(-c3cnc4ccc(Nc5cc(C(C)C)cnn5)nc4c3)cn2)C1` [Example 0687, 1-(3-(4-(6-((5-Isopropylpyridazin-3-yl)amino)-1,5-naphthyridin-3-yl)-1H-pyrazol-1-yl)propyl)-N-methylazetidine-3-carboxamide], the values for the IC50 (in the experiment with CHO-K1 cells; in experiment [1]; on human PI3Kα protein) were at least 25 µM, below 1 µM and below 1 µM, respectively.

For the compound `CC(C)c1cnnc(Nc2ccc3ncc(-c4cnn(CCCN5CC(C(=O)N(C)C)C5)c4)cc3n2)c1` [Example 0688], the IC50 with CHO-K1 cells is at least 25 µM; in experiment [1], below 1 µM; on human PI3Kα protein, below 1 µM.

For `COCC1COCCN1CCCn1cc(-c2cnc3ccc(Nc4cc(C(C)C)cnn4)nc3c2)cn1` (stereo not drawn) [Example 0691], the results for the IC50 (in the experiment on CHO-K1 cells; in experiment [1]; on human PI3Kα protein) were at least 25 µM, below 1 µM and below 1 µM, respectively.

For the compound `CC(C)c1cnnc(Nc2ccc3ncc(-c4cnn(CCCN5CC(F)C5)c4)cc3n2)c1` [Example 0694, 7-(1-(3-(3-Fluoroazetidin-1-yl)propyl)-1H-pyrazol-4-yl)-N-(5-isopropylpyridazin-3-yl)-1,5-naphthyridine-2-amine], the IC50 was at least 25 µM with CHO-K1 cells, below 1 µM in experiment [1] and below 1 µM at human PI3Kα protein.

Take `CC(C)c1cnnc(Nc2ccc3ncc(-c4cnn(CCCN5CC(N)C5)c4)cc3n2)c1` [Example 0695, 7-(1-(3-(3-aminoazetidin-1-yl)propyl)-1H-pyrazol-4-yl)-N-(5-isopropylpyridazin-3-yl)-1,5-naphthyridine-2-amine]: the IC50 was at least 25 µM with CHO-K1 cells, below 1 µM in experiment [1] and below 1 µM on human PI3Kα protein.

In the case of `CC(C)c1cnnc(Nc2ccc3ncc(-c4cnn(CCCN5CC(NS(C)(=O)=O)C5)c4)cc3n2)c1` [Example 0697], the results for the IC50 (in the experiment on CHO-K1 cells; in experiment [1]; on human PI3Kα protein) were at least 25 µM, below 1 µM and below 1 µM, respectively.

In the case of `CC(C)c1cnnc(Nc2ccc3ncc(-c4cnn(Cc5cccc(N)c5)c4)cc3n2)c1` [Example 0712, 7-(1-(3-Aminobenzyl)-1H-pyrazol-4-yl)-N-(5-isopropylpyridazin-3-yl)-1,5-naphthyridine-2-amine], the IC50 with CHO-K1 cells is at least 25 µM; in experiment [1], below 1 µM; at human PI3Kα protein, below 1 µM.

On to `CC(C)c1cnnc(Nc2ccc3ncc(-c4cnn(CCCN5CCN(C)C(=O)C5)c4)cc3n2)c1` [Example 0723, 4-(3-(4-(6-((5-isopropylpyridazin-3-yl)amino)-1,5-naphthyridin-3-yl)-1H-pyrazol-1-yl)propyl)-1-methylpiperazin-2-one], for which the IC50 is at least 25 µM in the experiment with CHO-K1 cells, below 1 µM in experiment [1] and below 1 µM at human PI3Kα protein.

With `CC(C)c1cnnc(Nc2ccc3ncc(-c4cnn(CC(O)CN5CCCC5)c4)cc3n2)c1` (stereo not drawn) [Example 0724, 1-(4-(6-((5-Isopropylpyridazin-3-yl)amino)-1,5-naphthyridin-3-yl)-1H-pyrazol-1-yl)-3-(pyrrolidin-1-yl)propan-2-ol], the values for the IC50 (in the experiment on CHO-K1 cells; in experiment [1]; on human PI3Kα protein) were at least 25 µM, below 1 µM and below 1 µM, respectively.

With `COC(CN1CCCC1)Cn1cc(-c2cnc3ccc(Nc4cc(C(C)C)cnn4)nc3c2)cn1` (stereo not drawn) [Example 0725, N-(5-isopropylpyridazin-3-yl)-7-(1-(2-methoxy-3-(pyrrolidin-1-yl)propyl)-1H-pyrazol-4-yl)-1,5-naphthyridine-2-amine], the IC50 in the experiment on CHO-K1 cells was at least 25 µM; in experiment [1] it was below 1 µM; at human PI3Kα protein it was below 1 µM.

On to `CC(C)c1cnnc(Nc2ccc3ncc(-c4cnn(CC(F)CN5CCOCC5)c4)cc3n2)c1` (stereo not drawn) [Example 0733], for which the IC50 in the experiment with CHO-K1 cells is at least 25 µM; in experiment [1] it was below 1 µM; on human PI3Kα protein, below 1 µM.

For the compound `Cc1ncccc1-c1nn(C)cc1-c1cnc2ccc(Nc3cc(C(C)C)cnn3)nc2c1` [Example 0737], the values for the IC50 (with CHO-K1 cells; in experiment [1]; on human PI3Kα protein) were at least 25 µM, below 1 µM and below 1 µM, respectively.

Turning to `Cc1cc(-c2nn(C)cc2-c2cnc3ccc(Nc4cc(C(C)C)cnn4)nc3c2)ccn1` [Example 0738], the IC50 in the experiment on CHO-K1 cells is at least 25 µM; in experiment [1], below 1 µM; at human PI3Kα protein, below 1 µM.

In the case of `CCc1cnnc(Nc2ccc3ncc(-c4cn(C)nc4C)cc3n2)c1` [Example 0756, 7-(1,3-Dimethyl-1H-pyrazol-4-yl)-N-(5-ethylpyridazin-3-yl)-1,5-naphthyridine-2-amine], the figures for the IC50 (in the experiment on CHO-K1 cells; in experiment [1]; on human PI3Kα protein) were at least 25 µM, below 1 µM and below 1 µM, respectively.
